Test results: ChEMBL document CHEMBL1127390, “Novel acyclic nucleotides and nucleoside 5'-triphosphates imitating 2',3'-dideoxy-2',3'-didehydronucleotides: synthesis and biological properties” (1994)
One block for each molecule: values may come before it. Calls of active or inactive are those of the source. The rule behind the calls is not given here.

Key:
[1] = target: Human immunodeficiency virus type 1 reverse transcriptase (Human immunodeficiency virus 1) (UniProt Q72547); test: Tested for percent inhibition of the human immunodeficiency virus (HIV) reverse transcriptase in MT-4; format: functional
[2] = target: Human immunodeficiency virus type 1 reverse transcriptase (Human immunodeficiency virus 1) (UniProt Q72547); test: In vitro effective dose for the inhibition of human immunodeficiency virus (HIV) reverse transcriptase in MT-4 and peripheral lymphocyte (PBL) cell cultures; NI is No Inhibition up to a concentration of 100 uM; format: functional
MT4 [3] = test: Anti HIV-l activity in infected MT-4 cells cultures; format: functional; details: Homo sapiens, read-out: ED50 (the source's name)
MT4 [4] = test: Activity in HIV-l infected MT-4 cells cultures; No activity; format: functional, cell-based; details: Homo sapiens
MT4 [5] = test: Anti HIV-l activity in infected MT-4 cells cultures; NA is NO Activity; format: functional, cell-based; details: Homo sapiens

ED50 [1]: 50 µM
Compound: Nc1ccn(C/C=C\COCP(=O)(O)OP(=O)(O)OP(=O)(O)O)c(=O)n1

ED50 [2]: No inhibition
Compound: Nc1ncnc2c1ncn2C/C=C\CCOP(=O)(O)OP(=O)(O)OP(=O)(O)O

Compound: Nc1ncnc2c1ncn2C/C=C\COCP(=O)(O)O
EC50 (MT4 [3]): 9 µM

Compound: Nc1ncnc2c1ncn2C/C=C\CO
ED50 (MT4 [4]): inactive

Compound: Cc1cn(C/C=C\COCP(=O)(O)O)c(=O)[nH]c1=O
ED50 (MT4 [5]): inactive

Compound: Nc1nc(O)c2ncn(C/C=C\COCP(=O)(O)O)c2n1
ED50 (MT4 [5]): inactive

Compound: Nc1ccn(C/C=C\COCP(=O)(O)O)c(=O)n1
ED50 (MT4 [5]): inactive
